Laboratory results from US9132106B2, “Synergistic ophthalmic compositions for disinfecting contact lenses” (Abbott Medical Optics Inc., priority 2013, dated 2015).

Tested on: Candida albicans ATCC 10231
Test: Antimicrobial activity, 6 hr log kill of C. albicans
Type: cell-based
Protocol: The test procedure for testing antimicrobial activity against specified test organisms is as follows: A 10-mL aliquot of test sample was transferred into a single polypropylene test tube. Sterile Dulbecco's Phosphate-Buffered Saline with 0.05 w/v % Polysorbate 80 (DPBST) was transferred into a separate polypropylene test tube and used as a control. All samples and control were stored at 20-25° C. throughout the duration of the test. Test cultures of specified test organisms were cultured and prepared in the conventional manner using Saboraud Dextrose Agar (SDA) as the growth medium. The challenge organism inoculum was adjusted to approximately 1×10e7-1×10e8 CFU/mL in DPBST. Fifty μL of culture inoculum was added to 10.0 mL of each test sample and control, so that the final inoculum level was in the range of 1×10e5 to 1×10e6 CFU (colony forming units) per mL of specified test organism. Contact time intervals for testing activity against the specified test organism were typically within 4 or 6 hours, e.g., 15 minutes, 30 minutes, 45 minutes, 1 hour, 2 hours, 4 hours and 6 hours, to remain within the intended product label instructions for maximum contact lens soak time.
Following incubation, the number of surviving organisms was enumerated by serial dilution and culture on SDA medium. An appropriate neutralizing disinfectant medium was used for performing serial dilutions (e.g. Letheen Neutralizing Broth containing 0.5% Polysorbate 80 media—LetheenT80). Additionally, the numbers of colony-forming-units (CFU) were counted and the Log 10 reduction in viable number calculated for test solutions based on the initial time zero challenge inoculum in the control solution.

[1] = Table II formula, 6 hour soaking

Compound: poly[(dimethyliminio)-2-butene-1,4-diyl chloride], α-[4-[tris(2-hydroxyethyl) ammonio]-2-butenyl]-Ω-[tris(2-hydroxyethyl)ammonio]-dichloride [PQ-1]
- effect of PQ-1 on C. albicans (in words) (in the presence of 0.65% trisodium citrate dihydrate): little effect

Compound: [H]/N=C(\N/C(=N/[H])NCCCCCCNC(=N)NC(=N)Nc1ccc(Cl)cc1)Nc1ccc(Cl)cc1 [chlorhexidine]
- log kill from chlorhexidine alone in the same formula (5.00 ppm chlorhexidine, 6 hours, C. albicans): about 0.5 log
- chlorhexidine concentration needed to achieve a 2-log kill against C. albicans (FIG. 2) [1]: > 12 ppm
- chlorhexidine concentration needed to achieve a 3-log kill against C. albicans (FIG. 2) [1]: > 15 ppm

Compound: CCCCC(CC)CNC(=N)NC(=N)NCCCCCCNC(=N)NC(=N)NCC(CC)CCCC (stereo not drawn) [alexidine]
- log kill from alexidine alone in the same formula (1.05 ppm alexidine, 6 hours, C. albicans): about 1.4 log
- log kill of C. albicans (FIG. 1) (alexidine at 1.00 ppm in Table 1 formula, 6 hour soaking): 1.3 log
